Reference: patent EP4459280A1, “SCREENING AND USES OF GLUTATHIONE SYNTHETASE MODULATORS” (Max-Planck-Gesellschaft zur Förderung der Wissenschaften …, priority 2023, dated 2024)
Residues, ends and D or L forms follow the SMILES beside them. *: point of attachment. Cbz = O=C(OCc1ccccc1)*

Columns and labels:
[1] = test system: HMGCR; experiment: Immunoblotting for HMGCR in U2OS cells; assay type: cell-based, human; conditions: for rescue of HMGCR in glutamine-starved cells: U2OS w/o glutamine 24h, then treated 24h: 1mM sodium pyruvate, DON at indicated concentrations, 2 mM D-gln; for loss of HMGCR during glutamine withdrawal: U2OS gln-, αKG 1 mM (24h), ISRIB 200nM (8h)
Description: Cells were tested frequently for Mycoplasma infection by PCR.
(§1) Primary antibodies were incubated in PBS-T overnight.

[2] = test system: HMGCR; experiment: Immunoblotting for HMGCR in HepG2 cells; assay type: cell-based, human
Excerpt: (§2) HeLa adenocarcinoma cells, HepG2 hepatocellular carcinoma, and Wild-type (WT) MEFs as well as Mfn1^-/^-, and Mfn2^-/- mouse embryonic fibroblasts (MEFs) were obtained from ATCC (CCL-2, HB-8065, CRL-2991, CRL-2992, and CRL-2993, respectively). eGFP-SCAP-expressing CHO Chinese hamster ovary cells were provided by Drs. J Goldstein and M Brown (U of Texas Southwestern Medical Center); WT and MFN2 KO U2OS cells were provided by Dr. Edward A Fon (McGill University, Montreal, Canada). All cell lines were cultured in complete DMEM (cDMEM: DMEM + 10% heat-inactivated FBS + 1%P/S) at 5% CO2 except for CHO cells which were cultured in DMEM/F12 media containing 5% heat-inactivated FBS. For all the experiments, cells were plated and cultivated without FBS (DMEM and 10% H20 for cell culture + 1%P/S) to promote cholesterol synthesis. Cells were tested frequently for Mycoplasma infection by PCR.
For all experiments, unless otherwise indicated, cells were plated in complete DMEM. The next day cell monolayers were rinsed 2X with 1X PBS and cultured in DMEM overnight, followed by treatments as indicated in text. Whole cells were harvested in chilled lysis buffer (50mM Hepes-KOH pH 7.4, 40mM NaCl, 2mM EDTA, 1.5mM NaVO4, 50mM NaF, 10mM NaPyrophosphate, 10mM, NaBetaGlycerophosphate (disodium salt pentahydrate), 1% Triton X-100) containing 0.25U/uL. Lysates were subsequently shaken at 1500 rpm at 37°C for 15min, centrifuged for 5 min at 1200 rpm at 4°C, and the supernatant was transferred into a fresh tube. Protein concentration was quantified using Pierce™ BCA Protein Assay Kit and after diluted with 5X SDS added to a final of 1X SDS. 10 ug of protein was applied in an SDS-PAGE gel and transferred to PVDF membranes. Membranes were blocked with PBS-0.05% Tween 20 (PBS-T) and 5% non-fat milk for 30min. Primary antibodies were incubated in PBS-T overnight. Following incubation, blots were washed three times in PBS-T and then incubated with horseradish peroxidase (HRP)-conjugated anti-mouse IgG (CST #7076) or anti-rabbit IgG (CST #7074) at a 1:10000 dilution for 60 minutes ar RT and developed using a chemiluminescence system (Pierce™ ECL Western Blotting Substrate or Pierce SuperSignal™ West Atto Ultimate Sensitivity Substrate; ThermoFisher Scientific). […]

[3] = biological target: GLUL (Homo sapiens, UniProt P15104); conditions: HepG2, 500 µM MSX for 8h; immunoblot
Excerpt: as §2
For all experiments, unless otherwise indicated, cells were plated in complete DMEM. The next day cell monolayers were rinsed 2X with 1X PBS and cultured in DMEM overnight, followed by treatments as indicated in text. […] Protein concentration was quantified using Pierce™ BCA Protein Assay Kit and after diluted with 5X SDS added to a final of 1X SDS. […]

[4] = test system: U2OS cells; conditions: U2OS cultured 24h w/o gln, supplemented 24h with 10 mM 15NH4Cl
Description: (§3) 2 × 10^5 cells were plated in complete DMEM in 6 wells plates. The following day, cells were rinsed 2X with 1X PBS and cultured in DMEM. Treatments were started the following day as indicated in the text in 6 wells plates containing. For glucose-related isotope-labeling experiments, D-Glucose-^13C6 (Sigma #389374-1G) was administed at 25mM in 1 ml of glutamine-free DMEM. […] After the indicated treatments cells were washed twice with 75mM of ammonium carbonate pH =7.4 and the plates were frozen in liquid nitrogen and stored at -80°C until metabolite extraction. For metabolite extraction, 60% MeOH containing internal standards buffer was added to each well of the frozen plate. […]
(§4) The LC-HRMS analysis of amine-containing compounds was performed using a QE-Plus high-resolution mass spectrometer coupled to a Vanquish UHPLC chromatography system (Thermo Fisher Scientific). […] The identity of each compound was validated by authentic reference compounds, which were measured at the beginning and the end of the sequence. For data analysis the area of the protonated [M + nBz + H]+ (nBz stands for the number of benzoyl moieties attached to each compound) isotopologue mass peaks of every required compound were extracted and integrated using a mass accuracy <3 ppm and a retention time (RT) tolerance of <0.05 min as compared to the independently measured reference compounds. […]

[5] = test system: HepG2 cells; conditions: HepG2 cultured 24h w/o gln, supplemented 24h with 10 mM 15NH4Cl
Description: as §3, §4

[6] = test system: ATF6; experiment: Immunoblotting for ATF6 cleavage in U2OS cells; assay type: cell-based, human; conditions: U2OS w/o glutamine 24h, then 8 hours ± 2 mM gln, 15 µg/ml tunicamycin
Description: as §1

[7] = test system: SREBP2; experiment: Immunoblotting for precursor and mature SREBP2 in U2OS cells; assay type: cell-based, human; conditions: U2OS starved of glutamine 8h ± αKG 1 mM
Description: (§5) For all experiments, unless otherwise indicated, cells were plated in complete DMEM. The next day cell monolayers were rinsed 2X with 1X PBS and cultured in DMEM overnight, followed by treatments as indicated in text. […] Lysates were subsequently shaken at 1500 rpm at 37°C for 15min, centrifuged for 5 min at 1200 rpm at 4°C, and the supernatant was transferred into a fresh tube. Protein concentration was quantified using Pierce™ BCA Protein Assay Kit and after diluted with 5X SDS added to a final of 1X SDS. 10 ug of protein was applied in an SDS-PAGE gel and transferred to PVDF membranes. Membranes were blocked with PBS-0.05% Tween 20 (PBS-T) and 5% non-fat milk for 30min. Primary antibodies were incubated in PBS-T overnight.

[8] = test system: eGFP-SCAP; experiment: Immunofluorescence assay of eGFP-SCAP localization relative to the Golgi in CHO cells; assay type: cell-based, Chinese hamster; conditions: CHO w/o gln 24h
Description: For immunofluorescence (IF) analysis of eGFP-SCAP-expressing CHOs, .25 × 10^4 cells were plated in a 24-well glass-bottom sensoplate, starved of glutamine for 24h, and incubated with methionine sulfoximine at 0.5 mM with either no glutamine, 2 mM glutamine, or 1mM a-ketoglutarate. […] Following 3X rinses in 1X PBS, images were taken using an Olympus IXplore SpinSR spinning disk confocal microscope.

[9] = test system: FDFT1; experiment: Immunoblotting for FDFT1 in U2OS cells; assay type: cell-based, human; conditions: U2OS starved of glutamine 8 hours, αKG 1 mM
Description: as §5

[10] = test system: U2OS cells; experiment: UPLC-HRMS-based measurement of 13C-cholesterol in U2OS cells; assay type: cell-based, human; conditions: U2OS 24h, 25 mM 13C6-glucose, gln-, 1 mM αKG
Description: 2 × 10^5 cells were plated in complete DMEM in 6 wells plates. The following day, cells were rinsed 2X with 1X PBS and cultured in DMEM. Treatments were started the following day as indicated in the text in 6 wells plates containing. For glucose-related isotope-labeling experiments, D-Glucose-^13C6 (Sigma #389374-1G) was administed at 25mM in 1 ml of glutamine-free DMEM. For ammonia-related isotope-labeling experiments, ammonium label experiments Ammonium-^15N chloride (Sigma #299251-250MG) at 10mM. After the indicated treatments cells were washed twice with 75mM of ammonium carbonate pH =7.4 and the plates were frozen in liquid nitrogen and stored at -80°C until metabolite extraction. For metabolite extraction, 60% MeOH containing internal standards buffer was added to each well of the frozen plate. The cells were then scraped, transferred to a new tube containing MTBE and EquiSPLASH™ LIPIDOMIX® (Avanti 330731-1EA), and incubated for 30 min at 1500 rpm at 4°C. The samples were centrifuged for 10 min at 21.000xg at 4°C. The supernatants were then collected in a new tube with LCMS-grade H2O, incubated for 10 min at 1500 rpm at 15°C, and further centrifuged for 5 min at 16.000xg at 15°C to obtain a clear phase separation. The upper phase (apolar metabolites) and the down phase (polar metabolites) were collected in different tubes. […]

[11] = test system: U2OS cells; experiment: 13C6-glucose isotope labeling and metabolomics (AEX-MS) of TCA metabolites in U2OS cells; assay type: cell-based, human; conditions: U2OS 24h, gln-, 1 mM αKG
Description: 2 × 10^5 cells were plated in complete DMEM in 6 wells plates. The following day, cells were rinsed 2X with 1X PBS and cultured in DMEM. Treatments were started the following day as indicated in the text in 6 wells plates containing. For glucose-related isotope-labeling experiments, D-Glucose-^13C6 (Sigma #389374-1G) was administed at 25mM in 1 ml of glutamine-free DMEM. For ammonia-related isotope-labeling experiments, ammonium label experiments Ammonium-^15N chloride (Sigma #299251-250MG) at 10mM. After the indicated treatments cells were washed twice with 75mM of ammonium carbonate pH =7.4 and the plates were frozen in liquid nitrogen and stored at -80°C until metabolite extraction. For metabolite extraction, 60% MeOH containing internal standards buffer was added to each well of the frozen plate. The cells were then scraped, transferred to a new tube containing MTBE and EquiSPLASH™ LIPIDOMIX® (Avanti 330731-1EA), and incubated for 30 min at 1500 rpm at 4°C. The samples were centrifuged for 10 min at 21.000xg at 4°C. The supernatants were then collected in a new tube with LCMS-grade H2O, incubated for 10 min at 1500 rpm at 15°C, and further centrifuged for 5 min at 16.000xg at 15°C to obtain a clear phase separation. The upper phase (apolar metabolites) and the down phase (polar metabolites) were collected in different tubes. After, the metabolite extracts were dried down in speed vac and stored at -80°C until further analysis by LC-HRS-MS as described further.

[12] = test system: p70 phospho-S6K (pS6K); experiment: Immunoblotting for phospho-S6K (mTORC1 activity) in U2OS cells; assay type: cell-based, human; conditions: U2OS gln-, αKG 1 mM
Description: as §5

[13] = test system: SREBP2; experiment: Immunoblotting for SREBP2 cleavage in HepG2 cells; assay type: cell-based, human; conditions: Hep G2 starved of glutamine 24h, brefeldin A 0.5 µg/ml
Description: as §1

[14] = test system: ATF4; experiment: Immunoblotting for ATF4 (integrated stress response) in U2OS cells; assay type: cell-based, human; conditions: U2OS ± gln, ISRIB 200nM, 8h
Description: as §1

Sequence of GLUL (P15104 whole entry): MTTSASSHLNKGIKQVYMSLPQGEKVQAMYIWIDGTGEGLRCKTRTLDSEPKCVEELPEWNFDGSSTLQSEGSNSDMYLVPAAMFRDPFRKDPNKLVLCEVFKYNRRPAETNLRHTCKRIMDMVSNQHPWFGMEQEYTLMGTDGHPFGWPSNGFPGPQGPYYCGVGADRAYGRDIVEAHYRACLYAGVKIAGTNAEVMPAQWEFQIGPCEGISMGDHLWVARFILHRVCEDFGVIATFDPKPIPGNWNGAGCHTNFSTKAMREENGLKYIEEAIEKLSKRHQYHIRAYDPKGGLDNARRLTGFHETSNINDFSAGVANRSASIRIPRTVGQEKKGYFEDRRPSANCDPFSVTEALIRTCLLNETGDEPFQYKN

Molecule: NC(=O)CC[C@@H](N)C(=O)O [D-glutamine]
- rescue of HMGCR in glutamine-starved cells [1]: do not rescue HMGCR in glutamine-starved cells

Molecule: CS(=N)(=O)CCC(N)C(=O)O (centres unmarked) [MSX, 2-amino-4-(S-methylsulfonimidosyl) butanoic acid]
- HMGCR during glutamine starvation ([2]; HepG2 starved of gln 24h, then w/out gln ± 500 µM MSX for 8h, immunoblot): further decreased HMGCR during glutamine starvation
- ammonium chloride-induced increase in HMGCR ([2]; HepG2 starved of gln 24h, then w/out gln, 10 mM NH4Cl ± 500 µM MSX for 8h, immunoblot): prevented the ammonium chloride-induced increase in HMGCR
- migration pattern of GLUL [3]: led to a shift in the migration pattern of GLUL

Molecule: Cl.N [^15N-ammonia, Ammonium-^15N chloride]
- 15N-labelled glutamine of total glutamine [4]: less than 2%
- 15N-labelled glutamine of total glutamine [5]: majority
- increase of total glutamine pool [5]: > two-fold

Molecule: tunicamycin
- ATF6 cleavage [6]: similarly drove ATF6 cleavage in glutamine-fed or starved cells

Molecule: O=C(O)CCC(=O)C(=O)O [αKG, alpha-ketoglutarate]
- processing of SREBP2 (precursor and mature forms) [7]: inhibited the processing of SREBP2 with or without αKG
- localization of GFP-SCAP ([8]; then gln- ± αKG 1 mM with MSX 500 µM): retained GFP-SCAP in the ER
- FDFT1 protein level [9]: decreased in cells starved of glutamine for 8 hours, despite αKG supplementation
- 13C-incorporation into cholesterol [10]: did not, however, rescue the >5-fold decrease in ^13C-incorporation into cholesterol
- m+2 and m+6 citrate pools ([11]; 25 mM 13C6-glucose): sufficient to restore m+2 and m+6 citrate pools to those of gln+ cells
- m+4 malate and succinate ([11]; 25 mM 13C6-glucose): blunted the increase in m+4 malate and succinate caused by glutamine starvation
- levels of TCA-intermediates (total pool size) [11]: partly rescued levels of TCA-intermediates
- loss of HMGCR during glutamine withdrawal [1]: neither treatment prevented the loss of HMGCR during glutamine withdrawal
- HMGCR protein level ([1]; U2OS starved of glutamine 8 hours, αKG 1 mM): decreased in cells starved of glutamine for 8 hours, despite αKG supplementation
- mTORC1 phosphorylation of S6 kinase (S6K1) [12]: restored mTORC1 phosphorylation of its target ribosomal protein S6 kinase (S6K1)

Molecule: Cl.N [ammonia, ammonium chloride]
- HMGCR following ammonia treatment ([2]; HepG2 starved of glutamine 24h, then 24 h w/o gln ± 10 mM 15NH4Cl): increased following ammonia treatment
- glutamine and HMGCR following ammonia treatment ([1]; U2OS starved of glutamine 24h, then 24 h w/o gln ± 10 mM 15NH4Cl): neither glutamine nor HMGCR increased following ammonia treatment

Molecule: CC(=O)C(=O)[O-].[Na+] [pyruvate, sodium pyruvate]
- rescue of HMGCR in glutamine-starved cells [1]: do not rescue HMGCR in glutamine-starved cells

Molecule: [N-]=[N+]=CC(=O)CC[C@H](N)C(=O)O [DON, 6-diazo-5-oxo-L-norleucine]
- rescue of HMGCR in glutamine-starved cells [1]: do not rescue HMGCR in glutamine-starved cells

Molecule: C[C@H]1CCC/C=C/[C@@H]2C[C@H](O)C[C@H]2[C@H](O)/C=C/C(=O)O1 [BFA, brefeldin A]
- SREBP2 cleavage [13]: rescue SREBP2 cleavage and HMGCR in glutamine-starved cells to levels similar to those in glutamine-fed cells
- HMGCR ([2]; Hep G2 starved of glutamine 24h, brefeldin A 0.5 µg/ml): rescue SREBP2 cleavage and HMGCR in glutamine-starved cells to levels similar to those in glutamine-fed cells

Molecule: CC(C)C[C@@H](C=O)NC(=O)[C@H](CC(C)C)NC(=O)[C@H](CC(C)C)NC(=O)OCc1ccccc1 [MG-132] (Cbz-Leu-Leu-Leu-aldehyde)
- depletion of HMGCR following glutamine withdrawal ([1]; U2OS ± glutamine, MG-132 10 µM, 8h): did not prevent the depletion of HMGCR following glutamine withdrawal

Molecule: O=C(COc1ccc(Cl)cc1)NC1CCC(NC(=O)COc2ccc(Cl)cc2)CC1 (centres unmarked) [ISRIB]
- activation of ISR effector ATF4 [14]: blocked the activation of the key ISR effector ATF4
- loss of HMGCR during glutamine withdrawal [1]: neither treatment prevented the loss of HMGCR during glutamine withdrawal

Molecule: NC(=O)CC[C@H](N)C(=O)O [glutamine]
- Percentage of cells with Golgi-localized eGFP-SCAP ([8]; then gln 2 mM with MSX 500 µM): > 75%
- EC50 ([1]; Homo sapiens, U2OS w/o gln 24h, refed gln 8h, immunoblot, read-out: half-maximal effects of glutamine on HMGCR induction): 250 to 500 µM
- glutamine concentration sufficient to induce HMGCR ([1]; U2OS w/o gln 24h, refed gln 8h): 0.125 mM

Molecule: O=C(Cc1ccccc1)Nc1nnc(CCSCCc2nnc(NC(=O)Cc3ccccc3)s2)s1 [BPTES, bis-2-(5-phenylacetamido-1,3,4-thiadiazol-2-yl)ethylsulfide]
- HMGCR levels in glutamine-replete conditions ([1]; U2OS 8h, 30µM BPTES, 2 mM gln, 1 mM αKG): did not reduce HMGCR levels

Molecule: uridine diphosphate N-acetylglucosamine [UDP-GlcNAc]
- rescue of HMGCR levels during glutamine starvation by supplements ([1]; U2OS w/o gln 8 hours, NEAA 100 µM, nucleosides, glucosamine 1 mM, ± αKG 1mM): did not rescue HMGCR levels during glutamine starvation
